Data: publication PMC10331583, “Control of fibrosis with enhanced safety via asymmetric inhibition of prolyl‐tRNA synthetase 1” (EMBO Molecular Medicine, 2023)
Where “and” joins values, the source holds several entries; their conditions need not be identical. Identical values can stand only once.

Experiments:
PARS1 WT = target: T1, PARS1 WT (Homo sapiens, UniProt P07814); assay: Microscale thermophoresis (MST), PARS1 WT; format: binding; conditions: for Fraction bound: single replicates
T1 construct: His‐PARS1 (1001–1,512 aa); made in house; host or cells: Escherichia coli
T1 sequence (P07814 1001-1512 limits assumed): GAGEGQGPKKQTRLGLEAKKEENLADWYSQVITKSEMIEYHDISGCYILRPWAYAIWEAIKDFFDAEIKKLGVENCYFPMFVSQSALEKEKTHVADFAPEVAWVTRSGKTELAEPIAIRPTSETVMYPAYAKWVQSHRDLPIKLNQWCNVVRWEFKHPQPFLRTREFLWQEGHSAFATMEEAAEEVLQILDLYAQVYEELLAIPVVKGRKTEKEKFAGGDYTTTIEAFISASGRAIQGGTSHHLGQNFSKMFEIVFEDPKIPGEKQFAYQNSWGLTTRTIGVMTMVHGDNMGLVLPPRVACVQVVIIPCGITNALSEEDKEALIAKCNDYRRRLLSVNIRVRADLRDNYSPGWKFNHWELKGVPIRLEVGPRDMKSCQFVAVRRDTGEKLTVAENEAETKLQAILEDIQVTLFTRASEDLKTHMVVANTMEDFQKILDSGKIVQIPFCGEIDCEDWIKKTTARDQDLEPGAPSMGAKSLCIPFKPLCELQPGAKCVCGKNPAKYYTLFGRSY

C57BL/6 mice = assay: Bleomycin‐induced lung fibrosis, therapeutic model 1 (compounds from a week after bleomycin); format: in vivo
Protocol: To examine therapeutic efficacy of DWN12088, all experiments were conducted following the international guidelines on the ethical use of experimental animals and approved by the Institutional Animal Care and Use Committee of Daewoong Pharmaceutical (IACUC‐21‐014). C57BL/6 mice (7–8‐week‐old, male, obtained from Orient Bio) were anesthetized with Zoletil and injected intratracheally with 100 μl bleomycin (2 units/kg) (Merck, B8416) to induce lung fibrosis. A group of disease‐free mice (“untreated”) were injected with PBS instead of bleomycin. After a week, mice treated with bleomycin were randomized to (i) vehicle (saline), (ii) HF 0.05 mg/kg, (iii) HF 0.1 mg/kg, and (iv) DWN12088 10 mg/kg groups (n = 5 for each group) according to their body weight. The drugs were orally administered once daily for 2 weeks, and then the outcome was analyzed. For the experiments testing the effect of the compounds 2 weeks after bleomycin challenge, the experiment was approved by IACUC of Daewoong Pharmaceutical (IACUC‐22‐009). The experimental procedures were performed following the methods described previously, with the exception that the compounds were administered 2 weeks after bleomycin challenge. The experiments were conducted as non‐blind tests.
Mice were anesthetized with Zoletil for 10 min, and a portable mouse pulse oximeter (Veterinary Pulse Oximeter, Berry Electronic) was placed on each mouse's body. The measurements were continued to allow the recording of 3 min of a stable signal.
The collagen contents of lung tissues were measured using Sircol™ soluble collagen assay (Biocolor Ltd., S1000) following the manufacturer's instructions. Briefly, the right lung lobes were homogenized, and collagen was solubilized in 0.5 M acetic acid. Tissue extracts were incubated with Sirius red dye, and the absorbance was determined at 540 nm using a spectrophotometer. The amount of collagen was expressed relative to the wet weight of the tissues.
The lung tissues were fixed in paraformaldehyde and embedded in paraffin. The paraffin‐embedded blocks were sectioned at 4 μm and then mounted onto glass slides. After deparaffinization and rehydration, the slides were fixed with Bouin's solution (Sigma Aldrich, HT10132‐1L) for 1 h. Then, the slides were incubated with hematoxylin (Sigma Aldrich, MHS16‐500ML), Biebrich Scarlet (Sigma Aldrich, B‐6008) and acid fuchsin (Sigma Aldrich, A‐3908), phosphomolybdic (DAEJUNG, 6531‐4105) and phosphotungstic acid (DAEJUNG, 6539‐4105), aniline blue (DAEJUNG, 1087‐4125), and then 1% (v/v) acetic acid (DUKSAN, UN2789). After dehydration, the slides were mounted onto cover slips and scanned using slide scanner (3D HISTECH, Pannoramic MIDI). Fibrotic area of the images was quantified by using Image J plugin, color deconvolution 2.

O[C@H]1CCCN[C@@H]1CCCn1cnc2c(Cl)c(Cl)ccc21 [DWN12088] was tested, and the “Fraction bound, average” value (PARS1 WT; Dose 30.5176 nM) was -0.2054, the Fraction bound (PARS1 WT; Dose 30.5176 nM) was -0.1847 and -0.2552 and -0.1762 and the “Fraction bound, average” value (PARS1 WT; Dose 61.0352 nM) was -0.1331. For the same compound, the Fraction bound (PARS1 WT; Dose 61.0352 nM) was -0.1271 and -0.1077 and -0.1644, the “Fraction bound, average” value (PARS1 WT; Dose 122.07 nM) was -0.0578 and the Fraction bound (PARS1 WT; Dose 122.07 nM) was 0.0166 and -0.0399 and -0.1500. For the same compound, the “Fraction bound, average” value (PARS1 WT; Dose 244.141 nM) was 0.0543, the Fraction bound (PARS1 WT; Dose 244.141 nM) was -0.0356 and 0.0851 and 0.1134 and the “Fraction bound, average” value (PARS1 WT; Dose 488.281 nM) was -0.0068. For the same compound, the Fraction bound (PARS1 WT; Dose 488.281 nM) was 0.0147 and -0.0499 and 0.0148, the “Fraction bound, average” value (PARS1 WT; Dose 976.562 nM) was 0.1887 and the Fraction bound (PARS1 WT; Dose 976.562 nM) was 0.1745 and 0.1271 and 0.2645. The “Fraction bound, average” value (PARS1 WT; Dose 1953.12 nM) was 0.3166, the Fraction bound (PARS1 WT; Dose 1953.12 nM) was 0.2796 and 0.3408 and 0.3294 and the “Fraction bound, average” value (PARS1 WT; Dose 3906.25 nM) was 0.1823. For the same compound, the Fraction bound (PARS1 WT; Dose 3906.25 nM) was 0.1409 and 0.1539 and 0.2519, the “Fraction bound, average” value (PARS1 WT; Dose 7812.5 nM) was 0.3895 and the Fraction bound (PARS1 WT; Dose 7812.5 nM) was 0.3262 and 0.4199 and 0.4224. The “Fraction bound, average” value (PARS1 WT; Dose 15625 nM) was 0.4633, the Fraction bound (PARS1 WT; Dose 15625 nM) was 0.4748 and 0.4733 and 0.4418 and the “Fraction bound, average” value (PARS1 WT; Dose 31250 nM) was 0.5523. The Fraction bound (PARS1 WT; Dose 31250 nM) was 0.4690 and 0.5423 and 0.6454, the “Fraction bound, average” value (PARS1 WT; Dose 62500 nM) was 0.5522 and the Fraction bound (PARS1 WT; Dose 62500 nM) was 0.5673 and 0.5892 and 0.5000. The “Fraction bound, average” value (PARS1 WT; Dose 125000 nM) was 0.7606, the Fraction bound (PARS1 WT; Dose 125000 nM) was 0.7942 and 0.7665 and 0.7210 and the “Fraction bound, average” value (PARS1 WT; Dose 250000 nM) was 0.9107. The Fraction bound (PARS1 WT; Dose 250000 nM) was 0.9397 and 0.8612 and 0.9313, the “Fraction bound, average” value (PARS1 WT; Dose 500000 nM) was 1.0322 and the Fraction bound (PARS1 WT; Dose 500000 nM) was 1.1218 and 1.1050 and 0.8698. For the same compound, the “Fraction bound, average” value (PARS1 WT; Dose 1000000 nM) was 1.1170, the Fraction bound (PARS1 WT; Dose 1000000 nM) was 1.1447 and 1.1049 and 1.1015 and the Kd (PARS1 WT; Kd (Fit Results), His-PARS1 WT, doses of the sheet in nM) was 20500 nM. It also gave a Kd (PARS1 WT; Kd, MST, in the presence of ATP) of 20000 nM, a Kd (PARS1 WT; Kd, MST, in the presence of proline 30 μM) of 79000 nM and a Kd (PARS1 WT; Kd, MST, in the presence of proline 120 μM) of 108000 nM. For the same compound, the Kd (PARS1 WT; Kd, WT, 5 mM ATP, mean ± SD, unit inferred) was 20500 ± 8580 nM, the “efficacy (SpO2, BALF total cell count, collagen contents)” value (C57BL/6 mice; 10 mg/kg oral once a day, 2 weeks, versus nintedanib 60 mg/kg and pirfenidone 200 mg/kg (Fig EV4D–F)) was “comparable with nintedanib and pirfenidone” and the “BALF total cell count, average” value (C57BL/6 mice; BLM +, 10 mg/kg) was 8.46 x105 cells. For the same compound, the “BALF total cell count, single animal” value (C57BL/6 mice; BLM +, 10 mg/kg) was 9.8 x105 cells and 8.9 x105 cells and 6.4 x105 cells and 7.5 x105 cells and 9.7 x105 cells, the “Collagen contents, average” value (C57BL/6 mice; BLM +, 10 mg/kg) was 213.8 μg/right lung and the “Collagen contents, single animal” value (C57BL/6 mice; BLM +, 10 mg/kg) was 175 μg/right lung and 275 μg/right lung and 198 μg/right lung and 165 μg/right lung and 256 μg/right lung. The “Fibrotic area, average” value (C57BL/6 mice; BLM +, 10 mg/kg) was 173.8 % of control, the “Fibrotic area, single animal” value (C57BL/6 mice; BLM +, 10 mg/kg) was 230.8 % of control and 181.2 % of control and 123.5 % of control and 151.5 % of control and 182.0 % of control and the “SpO2, average” value (C57BL/6 mice; BLM +, 10 mg/kg) was 81.0%. The “SpO2, single animal” value (C57BL/6 mice; BLM +, 10 mg/kg) was 87% and 81% and 88% and 72% and 77%, the “collagen deposition, Masson's trichrome staining” value (C57BL/6 mice; lung tissue (Fig 1H and I)) was “decreased collagen deposition in the interstitial spaces” and the fibrotic properties (C57BL/6 mice; model 1, drug administration from day 7) was “significantly reduced fibrotic properties”. The “in vivo effective dose of DWN12088 relative to that of HF” value (C57BL/6 mice; mouse, in vivo) was “about 100 times”.
